Here are results for 33 substances from US8258259B2, “Macromolecular compounds having controlled stoichiometry” (Starpharma Pty Limited, priority 2005, dated 2012).

Entries after “also recorded” stand apart in the source; their conditions may differ. Marks after values point to notes of the source that are not given here.

A short description of data set [1]: Plasma clearance studies for radiolabelled (tritiated) macromolecules: plasma, urine, faeces and organ tritium after 5 mg/kg intravenous dose. It is filed as in vivo. To be noted: rats; for plasma T½: tritiated macromolecule; for % of 3H dose excreted in total urine: urine collected 0-30 hr. Here is the method: Tritiated poly-lysine macromolecules were dissolved in phosphate buffered saline (PBS), pH 7.4) and frozen until required. Rats were intravenously administered 5 mg/kg of macromolecule via an indwelling cannula (implanted in the jugular vein) over 2 min.
Immediately following dosing, a blood sample (t=0) was collected via an indwelling carotid artery cannula and placed in a heparinised eppendorf tube.
Blood samples were then collected at predetermined intervals for the following 30 hr, and the plasma separated. In addition, urine and faeces were collected at 0-8 hr, 8-24 hr and 24-30 hr. At sacrifice (30 hr after the intravenous dose) the major organs (liver, kidneys, spleen, pancreas, heart, lung and brain) were collected and weighed. The tritium content of plasma, urine, faeces and the various tissue samples were determined using validated scintillation assays.

Data set [2] concerns T cell tropic NL4.3 strain of HIV-1. In words: Antiviral efficacy: MT-2 cells infected with HIV-1 NL4.3, cell viability by MTS after 6 days (IC50). It counts as cell-based. The conditions noted are these: for EC50: MT-2 cells infected with HIV-1 NL4.3, 6 days, MTS viability; for anti-HIV activity compared with SPL7013: MT-2 cells, HIV-1 NL4.3, comparison with homogenous surface dendrimer SPL7013 (Table 24). The protocol: MT-2 cells are infected with the T cell tropic NL4.3 strain of HIV-1 in the presence of 6, 5-fold serial concentrations of compound in triplicate wells of a 96 well plate. In the same plate, cells are exposed to the same drug concentrations in the absence of virus to determine the cytotoxic concentrations of the compound. […] Antimicrob Agents Chemother.
After 6 days incubation at 37° C. in a CO2 incubator, cell viability of both virus-infected and uninfected cells is determined by incubating cells for 3-4 hours with 3-(4,5-dimethylthiazol-2-yl)-5-(3-carboxymethoxyphenyl)-2-(4-sulfophenyl)-2H-tetrazolium (MTS) according to manufacturer's instructions (CellTiter 96 AQueous One Solution Cell Proliferation assay (Promega, Madison Wis.)).

For data set [3] the test system is unchanged. The conditions noted are these: positive control of the assay; Dezzutti et al. 2004; cited from earlier work.

On to “BHALys[Lys]16 [Su(NPN)2]32 [γ-CO-MTX-α-OtBu]32 [COPEG12]32 [Example 59]”, for which, in data set [1], the “plasma T½” value came to 23.7 ± 5.0 h. In the case of BHALys[Lys]16 [PEG200]32 [Example 52], in data set [1], the “plasma T½” value amounted to 0.72 ± 0.03 h and the “% of 3H dose excreted in total urine” value amounted to 80.4 ± 13.6%. For “BHALys[Lys]16 [α-CO-4-Ph(SO3Na)]16 [ε-CBz]16 [Example 41]”, in data set [2], the EC50 came to 4.2 µg/mL. As to BHALys[Lys]8[PEG2KD]16 [Example 54], in data set [1], the “plasma T½” value worked out at 23.90 ± 2.56 h and the “% of 3H dose excreted in total urine” value worked out at 26.0 ± 4.6%. The substance “BHALys[Lys]16 [α-COCH2O-3,6-Naph(SO3Na)2]16 [ε-CBz]16 [Example 39]” yielded an EC50 in data set [2] of 2.4 µg/mL. With “BHALys[Lys]2[α,ε-Lys][CBz]2[Lys]3 [COCH2O-3,6-Naph(SO3Na)2]6 [Example 46]”, in data set [2], the EC50 stood at 0.14 µg/mL and the “anti-HIV activity compared with SPL7013” value is given as “considerably more active than SPL7013; also recorded: significantly more active than SPL7013”.

For “BHALys[Lys]4[α-COCH2O-3,6-Naph(SO3Na)2]4[ε-COC5H12]4 [Example 29]”, the EC50 in data set [2] stood at 23.8 µg/mL. Regarding “BHALys[Lys]8[α-COCH2O-3,6-Naph(SO3Na)2]8[ε-CBz]8 [Example 36]”, the EC50 in data set [2] came to 3.2 µg/mL.

With BHALys[Lys]16 [PEG2KD]32 [Example 55], in data set [1], the “plasma T½” value is recorded as 75.35 ± 9.3 h and the “% of 3H dose excreted in total urine” value was found to be 3.1 ± 1.9%. With “DAH [Lys]8[α-COCH2O-3,6-Naph(SO3Na)2]8[ε-COC5H12]8 [Example 33]”, the EC50 in data set [2] was determined as 0.71 µg/mL.

For the substance “BHALys[Lys]8[α-CO-4-Ph(SO3Na)]8[ε-CBz]8 [Example 38]”, the EC50 in data set [2] came out at 2.2 µg/mL. Against the preceding substance, the EC50 is about 3.1-fold higher.

As for “BHALys[Lys]8[Su(NPN)2]16 [γ-CO-MTX-α-OtBu]16 [COPEG2300]16 [Example 63]”, the “plasma T½” value in data set [1] was 34.1 ± 1.1 h. On the same count and under the same terms, the figure for “BHALys[Lys]16 [Su(NPN)2]32 [γ-CO-MTX-α-OtBu]32 [COPEG24]32 [Example 62]” is 51.4 ± 2.7 h. With “BHALys[GlyLys]2[Lys]4[α,α-COCH2O-3,6-Naph(SO3Na)2]2[α,ε-COCH2O-3,6-Naph(SO3Na)2]2[ε,α-COC5H12]2[ε,ε-COC5H12]2 [Example 43]”, the EC50 in data set [2] worked out at 0.24 µg/mL.

Regarding BHALys[Lys]16 [PEG570]32 [Example 53], in data set [1], the “plasma T½” value was 9.45 ± 0.42 h and the “% of 3H dose excreted in total urine” value was found to be 42.9 ± 2.7%. As to “BHALys[Lys]2[GlyLys]4[Lys]8[α,α-COCH2O-3,6-Naph(SO3Na)2]4[α,εCOCH2O-3,6-Naph(SO3Na)2]4[ε,α-COC5H12]4[ε,ε-COC5H12]4 [Example 45]”, the EC50 in data set [2] turned out to be 0.37 µg/mL. As to “BHALys[Lys]8[Su(NPN)2]16 [γ-CO-MTX-α-OtBu]16 [COPEG12]16 [Example 58]”, the “plasma T½” value in data set [1] is 9.0 ± 0.2^a h. Regarding BHALys[Lys]8[PEG200]16 [Example 51], in data set [1], the “plasma T½” value was 0.25 ± 0.04 h and the “% of 3H dose excreted in total urine” value came out at 82.2 ± 6.4%. For the substance “BHALys[GlyLys]2[Lys]4[COCH2O-3,6-Naph(SO3Na)2]6 [ε,ε-CBz]2 [Example 48]”, in data set [2], the concentration for a half-maximal effect (EC50) was 0.13 µg/mL and the “anti-HIV activity compared with SPL7013” value is given as “considerably more active than SPL7013; also recorded: significantly more active than SPL7013”.

With “BHALys[Lys]4[α-COC5H12]4[ε-COCH2O-3,6-Naph(SO3Na)2]4 [Example 30]”, the EC50 in data set [2] was 58.3 µg/mL. In turn, “BHALys[GlyLys]2[Lys]4[Boc]6[ε,ε-COCH2O-3,6-Naph (SO3Na)2]2 [Example 49]” returned a concentration giving a half-maximal response (EC50) in data set [2] of 2.2 µg/mL. As for “BHALys[Lys]4[Su(NPN)2]8[γ-CO-MTX-α-OtBu]8[COPEG24]8 [Example 60]”, the “plasma T½” value in data set [1] is recorded as 3.9 ± 0.1^a h. Substance “BHALys[Lys]16[COCH2O-3,6-Naph(SO3Na)2]32 [SPL7013, reference compound]” returned a half-maximal effective concentration (EC50) in data set [2] of 1.5 µg/mL. Moreover, the HIV replication entry in data set [3] was “inhibits HIV replication”. Regarding “BHALys[Lys]8[α-CO-3,5-Ph(SO3Na)2]8[ε-CBz]8 [Example 37]”, the EC50 in data set [2] was 2 µg/mL. Same read-out and setting: the figure for “BHALys[Lys]2[GlyLys]4[Lys]8[α,α-Boc]4[α,ε-Boc]4[ε,α-COCH2O-3,6-Naph(SO3Na)2]4 [ε,ε-COCH2O-3,6-Naph(SO3Na)2]4 [Example 44]” is 0.33 µg/mL; for “BHALys[Lys]8[α-CO2PEG3]8[ε-CO-3,5-Ph(SO3Na)2]8 [Example 34]” it is 84.5 µg/mL.

As for “BHALys[Lys]8[α-CO2PEG3]8[ε-CO-4-PhSO3Na]8 [Example 35]”, the EC50 in data set [2] is greater than 500 µg/mL.

Take “DAH [Lys]8[α-CO-3,5-Ph(SO3Na)2]8[ε-COC5H12]8 [Example 32]”: the EC50 in data set [2] is 5.8 µg/mL.

Regarding “BHALys[Lys]4[α-CO-4-PhSO3Na]4[ε-COC5H12]4 [Example 31]”, the EC50 in data set [2] was 344 µg/mL. As for “BHALys[Lys]8[Su(NPN)2]16 [γ-CO-MTX-α-OtBu]16 [COPEG24]16 [Example 61]”, the “plasma T½” value in data set [1] was 21.0 ± 1.7 h. In data set [2], “BHALys[Lys]2[α,ε-Lys][COCH2O-3,6-Naph(SO3Na)2]2[Lys]3 [Boc]6 [Example 47]” gave an EC50 greater than 50 µg/mL. On the same count and under the same terms, the figure for “BHALys[GlyLys]2[Lys]4[α,α-Boc]2[ε,α-COCH2O-3,6-Naph(SO3Na)2]2[ε,ε-COCH2O-3,6-Naph(SO3Na)2]2 [Example 42]” is 10.6 µg/mL.

In the case of “BHALys[Lys]16 [α-CO-3,5-Ph(SO3Na)2]16[ε-CBz]16 [Example 40]”, the EC50 in data set [2] turned out to be 3.2 µg/mL.
